Test results from US20170121678A1, “METHODS AND COMPOSITIONS TO STABILIZE DIFFERENT STEM CELL STATES” (UNIVERSITY OF WASHINGTON - CENTER COMMERCIALIZATION, priority 2014, published 2017).
“Also recorded” adds a separate entry of the source.

Tests used:
Type in all cases: cell-based, human
[1] = system: histone methylation marks (H3K27me3, H3K9me3, H3K4me3, H3K9/K14Ac) in hESCs; assay: Western blot analysis of histone marks; settings: 1MNA 0.5 mM, 72 hr, primed hESCs (Elf1 AF), low L-methionine media
Procedure: Cellular extracts were prepared using a lysis buffer containing 20 mM Tris HCl (pH 7.5), 150 mM NaCl, 15% glycerol, 1% Triton, 25 mM (3-glycerolphosphate, 50 mM NaF, 10 mM sodium pyrophosphate, orthovanadate, PMSF), protease inhibitor cocktail (Roche) and 2% SDS. 25 U of BENZONASE® nuclease (EMD Chemicals) and 20 mM of DTT were added to the lysis buffer right before use. Protein concentrations were then determined by the method of Bradford. Fifteen micrograms of protein extracts were loaded, separated by 4-20% SDS-PAGE, and transferred to polyvinylidene difluoride membranes (Hybond-N+, Amersham Pharmacia Biotech). Membranes were blocked with 5% nonfat dry milk for 60 min at room temperature, and incubated overnight at 4° C. with primary antibody. […]
Naïve hESCs (Elf1 2iLIF) grown on MATRIGEL® were treated with 100 μM of STAT3 inhibitor (Selleckchem) for 6 hr or 24 hr and analyzed for methylation marks by Western blot and ChIP Seq. […]
(§1) Naïve Elf1 2iLIF cells were transfected in MATRIGEL® coated plates in MEF-CM supplemented with ROCK inhibitors (Torcis) using LIPOFECTAMINE™ RNAiMAX™ (Life Technologies). siRNA targeting NNMT (Hs-NNMT-8) was purchased from Qiagen as FLEXITUBE® siRNA premix, and siRNA targeting luciferase was used as control. siRNAs against NNMT and luciferase were used at 50 nM final concentration. […] Bright field and fluorescence images were taken after 3 days. […]

[2] = system: Wnt signaling (BAR reporter) in Elf1 cells; assay: BAR Wnt reporter activity in Elf1 reporter cells; settings: for BAR reporter activity: naïve Elf1 cells, 72 h, IWP2 2 μM, XAV939 5 μM, siRNA 10 nM
Procedure: Elf1 cells grown in naïve media (2iL or 2iLIF) or primed media (AF) were infected with BAR reporter lentivirus and seeded onto MATRIGEL®-coated plates in MEF-CM with 10 μM Y-27632, and 1 μM Thiazovivin (ROCK inhibitors, Tocris). Transduced Elf cells were cultured for a week on MATRIGEL®, then passaged onto MEF plates for further selection and expansion. Elf1 naïve reporter cells were harvested as single cells via TRYPLE™ Express and FACS sorted for the population with both Venus and DsRed (Discosoma sp. Red fluorescent protein) positive signals. DsRed positive colonies of Elf1 primed reporter cells were manually dissected, transferred onto MEF plates, and the same positive selection was repeated one more round or two depending on the selection efficiency. Negative colonies were manually removed as a negative selection. Once the DsRed positive lines were isolated and stable lines established, the primed Elf1 reporter cells were passaged with dispase.
(§2) Wnt secretion and signaling were inhibited in naïve hESCs (Elf1, WIN1) by treatment with IWP2 (2 μM, Torcis) or XAV939 (5 μM, Sigma). Wnt pathway was activated in primed Elf1 AF reporter cells using a GSK3 inhibitor, CHIR99021 (72 hr, 10 μM, AxonMedChem). Both IWP2 and CHIR99021 were reconstituted in DMSO.
L and L-Wnt3A cells (ATCC) were cultured in 15 cm plates in 10% FBS/DMEM media until 90% confluent. Medium was collected every 48 hr for three batches. Biological activity of secreted Wnt3A in the individual batches of the conditional medium was confirmed in 293T-BAR reporter cells, then batches were pooled and filtered. Primed (Elf1 AF) reporter cells were grown on MATRIGEL® with 50% LCM or 50% Wnt3A-CM for 3 days prior taking bright field and fluorescent pictures.
Naïve Elf1 2iLIF cells were transfected in MATRIGEL® coated plates in MEF-CM supplemented with ROCK inhibitors (Torcis) using LIPOFECTAMINE™ RNAiMAX™ (Life Technologies). siRNA targeting NNMT (Hs-NNMT-8) was purchased from Qiagen as FLEXITUBE® siRNA premix, and siRNA targeting luciferase was used as control. siRNAs against NNMT and luciferase were used at 50 nM final concentration. Proteins and RNAs were extracted 72 hr after transfection. siRNA targeting beta-catenin (Invitrogen, CTNNBI, SILENCER® Select ID s437) and SILENCER® Select Negative Control 1 (Invitrogen) were transfected in naïve Elf1 2iLIF cells at 10 nM final concentration following a reverse transfection protocol. Bright field and fluorescence images were taken after 3 days. The efficacy of NNMT and beta-catenin siRNAs was confirmed by qPCR analysis.

naïve hESCs (WIN1, Elf1) = assay: Seahorse mitostress protocol, OCR changes in response to FCCP; settings: for OCR changes in response to FCCP: naïve hESCs (WIN1)
Procedure: Naïve and primed ESCs were seeded in their specific growth media onto 96-well Seahorse plates (Seahorse Bioscience) pre-coated with MATRIGEL® at 25×10^4 or 40×10^4 cells/well. Culture media were exchanged for base media (unbuffered DMEM (Sigma D5030) supplemented with sodium pyruvate (Gibco, 1 mM) and with 25 mM glucose (for mito stress assay), 25 mM glucose and 50 μM carnitine (for palmitate assay), or 2 mM glutamine (for glucose stress assay)) 1 hr prior to the assay and for the duration of the measurement. Substrates and selective inhibitors were added during the measurements to achieve final concentrations of glucose (2.5 mM), […] (FCCP, 300 nM-500 nM), oligomycin ([…]), antimycin (2.5 μM), rotenone (2.5 μM), palmitate (50 μM in BSA), BSA (bovine serum albumin) and ETO (50 μM).
The mitochondrial stress protocol starts with the measurement of baseline oxygen consumption rate (OCR) and extracellular acidification rate (ECAR) followed by measurement of OCR and ECAR changes in response to addition of oligomycin, FCCP and finally antimycin and rotenone.
Then palmitate assay starts with the measurement of baseline OCR followed by measurement of OCR changes in response to injection of palmitate or BSA (in negative controls) and ETO. The OCR and ECAR values were further normalized to the number of cells present in each well, quantified by Hoechst staining (H033342; Sigma-Aldrich) as measured using fluorescence at 355 nm excitation and 460 nm emission (ENVISION® 2104 Multilabel reader, Perkin Elmer). Changes in OCR and ECAR in response to substrates and inhibitors addition were defined as the maximal change after the chemical addition compared to the last OCR value before the addition.
as §2
WIN1 and Elf1 cells were seeded in Seahorse plates in naïve (WIN1, Elf1) or primed (WIN1 AF) conditions with or without Kynurenine (100 μM, Sigma) and mitostress protocol was performed 2 days later.
WIN1 cells were seeded in Seahorse plates 2 days prior change of media with media without L-methionine (Sigma 0422 supplemented with 0.584 gm/L L-glutamine) and addition of SAM (500 μM). Five hours later Seahorse mitostress protocol was performed.

[3] = system: NNMT, miR-372, miR-10a expression in naïve hESCs (Elf1); assay: qPCR analysis of NNMT and microRNA expression; settings: IWP2 2 μM, 72 hr
Procedure: Total RNA was extracted using TRIZOL® and subsequently analyzed by SYBR® green qPCR with the 7300 real time PCR system (Applied Biosystems) as well as TAQMAN® qPCR (Applied Biosystems).
qPCR of miRNAs was conducted using AQMAN®miRNA assays (Applied Biosystems). Raw Ct (threshold cycle) values for miRNAs were normalized to RNU66 (endogenous snoRNA, internal control). Linear expression values for all qPCR experiments were calculated using the 2 (−ΔCt) method. P-values were calculated using a student's t-test (*p<0.05, **p<0.01, ***p<0.001).
as §2, §1

[4] = primed hESCs (Elf1 AF), 3 days, CHIR99021 10 μM, 50% Wnt3A-CM

C[n+]1cccc(C(N)=O)c1 [1MNA, 1-methylnicotinamide]
H3K27me3 mark [1]: reduces | H3K27me3 mark ([1]; listed as 1 MNA): decreased

Cc1c[nH]c(-c2cnc(NCCNc3ccc(C#N)cn3)nc2-c2ccc(Cl)cc2Cl)n1 [CHIR99021]
BAR reporter [2, 4]: re-activation | differentiation [2, 4]: induces differentiation

Cc1ccc2nc(NC(=O)CSc3nc4c(c(=O)n3-c3ccccc3)SCC4)sc2c1 [IWP2]
OCR changes after FCCP (naïve hESCs (WIN1, Elf1); IWP2 2 μM, 48 hr, naïve hESCs (Elf1, WIN1) and transitioning to primed (WIN1 AF)): decreases | NNMT expression (qPCR) [3]: downregulates | miR-372 expression (qPCR) [3]: downregulates | BAR reporter activity [2]: represses; also recorded: inhibit

C[S+](CC[C@H](N)C(=O)[O-])C[C@H]1O[C@@H](n2cnc3c(N)ncnc32)[C@H](O)[C@@H]1O (stereo partly shown) [SAM, S-adenosyl methionine]
OCR changes in response to FCCP (naïve hESCs (WIN1, Elf1); SAM 500 μM, 5 hr, media without methionine): reduces | metabolic profile in naïve hESCs (naïve hESCs (WIN1, Elf1); high levels of SAM (FIG. 4K-4L)): induce a primed-like metabolic profile

Oc1nc(-c2ccc(C(F)(F)F)cc2)nc2c1CSCC2 [XAV939]
BAR reporter activity [2]: dramatically downregulated; also recorded: inhibit

Nc1ccccc1C(=O)CC(N)C(=O)O (stereo not shown) [kynurenine]
OCR changes in response to FCCP (naïve hESCs (WIN1, Elf1); kynurenine 100 μM, 2 days): reduced | naïve to primed hESC metabolic switch (naïve hESCs (WIN1, Elf1); kynurenine added to the media (FIG. 4E)): accelerated
